Results on eight compounds are retold here after PubChem BioAssay AID1259411 (Chemical Carcinogenesis Research Information System (CCRIS), 2018).

The test system of the data set is rodent carcinogenicity bioassays, tumor incidence. The data set can be described thus: CCRIS carcinogenicity studies. The gist of the method: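 NCI-built, expert-reviewed records of carcinogenicity and related test outcomes (mutagenicity, tumor promotion/inhibition) compiled from published and report sources, historical span 1985-2011, not updated.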

The source made the active and inactive calls. No rule for the calls is given here.

Turning to `CCBr`, the carcinogen call was “active; positive” (Species: MOUSE, Strain/Sex: B6C3F1/FEMALE, Route: INHALATION, Dose: 0, 100, 200, 400 PPM 6 HR/D 5 D/WK FOR 103 WK (STUDY DURATION: 105 WK), Dose: 0, 100, 200, 400 PPM 6 HR/D 5 D/WK FOR 103 WK (STUDY DURATION: 105 WK), Tumor Site: Type of Lesion: UTERUS: ADENOMA, ADENOCARCINOMA, ADENOMA OR ADENOCARCINOMA, ADENOCARCINOMA OR SQUAMOUS CELL CARCINOMA); “equivocal” (Species: MOUSE, Strain/Sex: B6C3F1/MALE, Route: INHALATION, Dose: 0, 100, 200, 400 PPM 6 HR/D 5 D/WK FOR 104 WK (STUDY DURATION: 106 WK), Dose: 0, 100, 200, 400 PPM 6 HR/D 5 D/WK FOR 104 WK (STUDY DURATION: 106 WK), Tumor Site: Type of Lesion: LUNG: ALVEOLAR/BRONCHIOLAR ADENOMA OR CARCINOMA); “equivocal” (Species: RAT, Strain/Sex: F344/FEMALE, Route: INHALATION, Dose: 0, 100, 200, 400 PPM 6 HR/D 5 D/WK FOR 104 WK (STUDY DURATION: 106 WK), Dose: 0, 100, 200, 400 PPM 6 HR/D 5 D/WK FOR 104 WK (STUDY DURATION: 106 WK), Tumor Site: Type of Lesion: BRAIN: GLIOMA, LUNG: ALVEOLAR/BRONCHIOLAR ADENOMA); “active; positive” (Species: RAT, Strain/Sex: F344/MALE, Route: INHALATION, Dose: 0, 100, 200, 400 PPM 6 HR/D 5 D/WK FOR 104 WK (STUDY DURATION: 106 WK), Dose: 0, 100, 200, 400 PPM 6 HR/D 5 D/WK FOR 104 WK (STUDY DURATION: 106 WK), Tumor Site: Type of Lesion: ADRENAL MEDULLA: PHEOCHROMOCYTOMA, PHEOCHROMOCYTOMA OR MALIGNANT PHEOCHROMOCYTOMA).

Regarding `CCCCC1C(=O)N(c2ccccc2)N(c2ccccc2)C1=O`, the carcinogen call was “inactive; negative” (Species: MOUSE, Strain/Sex: B6C3F1/FEMALE, Route: GAVAGE, Dose: 0, 150, 300 MG/KG IN CORN OIL 5 D/WK FOR 103 WK (STUDY DURATION: 107 WK), Dose: 0, 150, 300 MG/KG IN CORN OIL 5 D/WK FOR 103 WK (STUDY DURATION: 107 WK)); “active; positive” (Species: MOUSE, Strain/Sex: B6C3F1/MALE, Route: GAVAGE, Dose: 0, 150, 300 MG/KG IN CORN OIL 5 D/WK FOR 103 WK (STUDY DURATION: 107 WK), Dose: 0, 150, 300 MG/KG IN CORN OIL 5 D/WK FOR 103 WK (STUDY DURATION: 107 WK), Tumor Site: Type of Lesion: LIVER: HEPATOCELLULAR ADENOMA, HEPATOCELLULAR ADENOMA OR CARCINOMA); “active; positive” (Species: RAT, Strain/Sex: F344/FEMALE, Route: GAVAGE, Dose: 0, 50, 100 MG/KG IN CORN OIL 5 D/WK FOR 103 WK (STUDY DURATION: 103 WK), Dose: 0, 50, 100 MG/KG IN CORN OIL 5 D/WK FOR 103 WK (STUDY DURATION: 103 WK), Tumor Site: Type of Lesion: KIDNEY: TRANSITIONAL EPITHELIAL CARCINOMA, TUBULAR CELL ADENOMA); “equivocal” (Species: RAT, Strain/Sex: F344/MALE, Route: GAVAGE, Dose: 0, 50, 100 MG/KG IN CORN OIL 5 D/WK FOR 103 WK (STUDY DURATION: 103 WK), Dose: 0, 50, 100 MG/KG IN CORN OIL 5 D/WK FOR 103 WK (STUDY DURATION: 103 WK), Tumor Site: Type of Lesion: KIDNEY: TUBULAR CELL ADENOMA, TUBULAR CELL ADENOMA OR CARCINOMA).

On to `CC(C)=NO`, for which, where the note is “Species: RAT, Strain/Sex: WISTAR/MALE, Route: ORAL, Dose: 1.0 G/L IN DRINKING WATER 5/WK FOR 18 MO, Tumor Site: Type of Lesion: LIVER: HEPATOCELLULAR ADENOMA”, the carcinogen call is “active; positive”.

Consider `Cc1ccc(N(CC2=NCCN2)c2cccc(O)c2)cc1`, for which the carcinogen call reads like this: (Species: RAT, Strain/Sex: CRL:CD BR/MALE, FEMALE (65/GROUP), Route: ORAL (GAVAGE), Dose: 10, 50, 150 MG/KG DAILY IN DISTILLED WATER (STUDY DURATION: 101 WK), Dose: 10, 50, 150 MG/KG DAILY IN DISTILLED WATER (STUDY DURATION: 101 WK), Tumor Site: Type of Lesion: BROWN ADIPOSE TISSUE: HIBERNOMA) “active; positive”; (Species: RAT, Strain/Sex: CRL:CD BR/MALE, FEMALE (65/GROUP), Route: ORAL (GAVAGE), Dose: 10, 50, 150 MG/KG DAILY IN DISTILLED WATER (STUDY DURATION: 101 WK), Dose: 10, 50, 150 MG/KG DAILY IN DISTILLED WATER (STUDY DURATION: 101 WK), Tumor Site: Type of Lesion: PITUITARY: ADENOMA) “active; positive”.

In the case of `c1ccc2nc3c(cc2c1)c1c(c2ccccc23)O1`, the carcinogen call is “active; positive” (Species: MOUSE, Strain/Sex: SWISS/FEMALE, Route: INTRAPERITONEAL, Dose: 0, 1.05 UMOL GIVEN AS 150 NMOL IN 5 µL DMSO WITHIN 24 HR OF BIRTH, 300 NMOL IN 10 µL DMSO ON D 8 OF LIFE, AND 600 NMOL I, Tumor Site: Type of Lesion: LUNG: ADENOMA) and “inactive; negative” (Species: MOUSE, Strain/Sex: SWISS/MALE, Route: INTRAPERITONEAL, Dose: 0, 1.05 UMOL GIVEN AS 150 NMOL IN 5 µL DMSO WITHIN 24 HR OF BIRTH, 300 NMOL IN 10 µL DMSO ON D 8 OF LIFE, AND 600 NMOL I).

Consider `IC(I)I`, for which the carcinogen call reads like this: (Species: MOUSE, Strain/Sex: B6C3F1/FEMALE, Route: GAVAGE, Dose: 0, 47, 93 MG/KG, TWA, Dose: 0, 47, 93 MG/KG, TWA) “inactive; negative”; (Species: MOUSE, Strain/Sex: B6C3F1/MALE, Route: GAVAGE, Dose: 0, 47, 93 MG/KG, TWA, Dose: 0, 47, 93 MG/KG, TWA) “inactive; negative”; (Species: RAT, Strain/Sex: OSBORNE-MENDEL/FEMALE, Route: GAVAGE, Dose: 0, 27, 55 MG/KG, TWA, Dose: 0, 27, 55 MG/KG, TWA) “inactive; negative”; (Species: RAT, Strain/Sex: OSBORNE-MENDEL/MALE, Route: GAVAGE, Dose: 0, 71, 142 MG/KG, TWA, Dose: 0, 71, 142 MG/KG, TWA) “inactive; negative”.

In the case of `Clc1ccc(-c2cc(Cl)c(Cl)c(Cl)c2)cc1Cl`, the carcinogen call is “active; positive” (Species: RAT, Strain/Sex: SPRAGUE-DAWLEY/FEMALE, Route: GAVAGE, Dose: 0, 30, 100, 175, 300, 550, 1000 NG/KG BW 5 D/WK FOR 2 YRS, Dose: 0, 30, 100, 175, 300, 550, 1000 NG/KG BW 5 D/WK FOR 2 YRS, Tumor Site: Type of Lesion: LIVER: CHOLANGIOCARCINOMA, HEPATOCELLULAR ADENOMA OR CARCINOMA); “active; positive” (Species: RAT, Strain/Sex: SPRAGUE-DAWLEY/FEMALE, Route: GAVAGE, Dose: 0, 30, 100, 175, 300, 550, 1000 NG/KG BW 5 D/WK FOR 2 YRS, Dose: 0, 30, 100, 175, 300, 550, 1000 NG/KG BW 5 D/WK FOR 2 YRS, Tumor Site: Type of Lesion: LUNG: CYSTIC KERATINIZING EPITHELIOMA); “active; positive” (Species: RAT, Strain/Sex: SPRAGUE-DAWLEY/FEMALE, Route: GAVAGE, Dose: 0, 30, 100, 175, 300, 550, 1000 NG/KG BW 5 D/WK FOR 2 YRS, Dose: 0, 30, 100, 175, 300, 550, 1000 NG/KG BW 5 D/WK FOR 2 YRS, Tumor Site: Type of Lesion: ORAL CAVITY: SQUAMOUS CELL CARCINOMA); “inactive; negative” (Species: RAT, Strain/Sex: SPRAGUE-DAWLEY/FEMALE, Route: GAVAGE, Dose: 1000 NG/KG BW 5 D/WK FOR 30 WKS (STUDY DURATION: 2 YRS)); “active; positive; highest dose only” (Species: RAT, Strain/Sex: SPRAGUE-DAWLEY/FEMALE, Route: ORAL, Dose: 0, 30, 100, 175, 300, 550, 1000 NG/KG/D (STUDY DURATION: 2 YRS), Dose: 0, 30, 100, 175, 300, 550, 1000 NG/KG/D (STUDY DURATION: 2 YRS), Tumor Site: Type of Lesion: ORAL MUCOSA: SQUAMOUS CELL CARCINOMA).

For `Cc1ccc2c(c1)[C@H](Nc1nc(N)nc(C(C)F)n1)[C@@H](C)C2` (stereo partly specified), the carcinogen call by setting is: (Species: Mouse, Strain/Sex: C57BL/6J/Female (50/Group), Route: Oral, Dose: 0, 8.4, 42, 168 mg/kg/day of 93.14% indaziflam in diet for 18 mo, study duration 18 mo, Dose: 0, 8.4, 42, 168 mg/kg/day of 93.14% indaziflam in diet for 18 mo, study duration 18 mo) “inactive; negative”; (Species: Mouse, Strain/Sex: C57BL/6J/Male (50/Group), Route: Oral, Dose: 0, 6.8, 34, 142 mg/kg/day of 93.14% indaziflam in diet for 18 mo, study duration 18 mo, Dose: 0, 6.8, 34, 142 mg/kg/day of 93.14% indaziflam in diet for 18 mo, study duration 18 mo) “inactive; negative”; (Species: Rat, Strain/Sex: Wistar/Female (60/Group), Route: Oral, Dose: 0, 17, 167, 661 (wks 0-40), 452 (overall) mg/kg/day of 93.14% indaziflam in diet for 2 yr, study duration 2 yr, Dose: 0, 17, 167, 661 (wks 0-40), 452 (overall) mg/kg/day of 93.14% indaziflam in diet for 2 yr, study duration 2 yr) “inactive; negative”; (Species: Rat, Strain/Sex: Wistar/Male (60/Group), Route: Oral, Dose: 0, 12, 118, 414 mg/kg/day of 93.14% indaziflam in diet for 2 yr, study duration 2 yr, Dose: 0, 12, 118, 414 mg/kg/day of 93.14% indaziflam in diet for 2 yr, study duration 2 yr) “inactive; negative”.
